The values below come from patent US12281121B2, “N-containing heteroaryl derivative and pharmaceutical composition comprising same as active ingredient for prevention or treatment of cancer” (VORONOI Inc., priority 2019, dated 2025).

Structures are written as SMILES.

The GI50 is the concentration at which growth is held to half of that of the control. The IC50 is the concentration at which inhibition is half-maximal. Read a high IC50 as lower potency.

For assay [1], the system named is Ba/F3 CCDC6-RET (WT) cells. Nature of the assay: Cell proliferation inhibition, CellTiter-Glo. Format: cell-based. The following applies: BaF3/CCDC6-RET, 72 hours. As to the method: (§1) Among lung cancer cell lines, which express RET fusion genes, LC-2/ad cells were cultured after adding 10% FBS (HyClone) to RPMI:F12 (1:1) (Invitrogen), and F-12 (Invitrogen) supplemented with 10% FBS was used for TT cells. RPMI-1640 supplemented with 10% FBS and 5 ng/ml IL-3 (R&D Systems) was used for Ba/F3 cells. Transduced Ba/F3 cells were cultured by adding 1 ug/ml puromycin (Invitrogen) to the same medium. 24 hours before cells were treated with the compound, 3000 to 5000 cells were aliquoted into each well of a white clear bottom 96 well plate (Corning). The compound was diluted in DMSO (3-fold dilution, a total of 12 concentrations) and the compound was injected by 0.5 μl such that the final concentration was 0.3 nM to 50 μM. For the measurement of living cells, 72 hours after the compound treatment, the cells were stored at room temperature for 10 minutes using a CellTiter-Glo luminescent cell-viability agent (Promega), and then the luminescence intensity was measured using a reader (SynergyNeo, Biotek). Each experiment was repeated in triplicate. The result value was calculated by the cell growth ratio (%) compared to the control. A graph was drawn using the GraphPad Prism version 5.0 program, and a GI50 (nM) value was calculated.
(§2) In the cell assay column, LC-2/ad (with CCDC6-RET gene) is a lung cancer cell line, a TT cell line ([…]) is a thyroid cancer cell line, Ba/F3 CCDC6-RET (WT), Ba/F3 KIF5B-RET (WT), and Ba/F3 KIF5B-RET (V804M) are cells in which disease-related traits (CCDC6-RET, KIF5B-RET, and KIF5B-RET (V804M)) are introduced into Ba/F3 cells, and Ba/F3 (naive) is a cell which is not transduced.
(In general: In ATP-based viability assays light output follows the ATP content of the culture.)

Assay [2] concerns Ba/F3 KIF5B-RET (V804M) cells. Nature of the assay: Cell proliferation inhibition, CellTiter-Glo. Format: cell-based. Conditions: Mus musculus, BaF3, 72 hours. As to the method: as §1, §2
Assay [3] relates to Ba/F3 KIF5B-RET (WT) cells. Nature of the assay: Cell proliferation inhibition, CellTiter-Glo. Type of assay: cell-based. Conditions: Mus musculus, BaF3, 72 hours. As to the method: as §1, §2
The next assay concerns Ba/F3 (naive) cells. Nature of the assay: Cell proliferation inhibition, CellTiter-Glo. Type of assay: cell-based. Conditions: Mus musculus, BaF3; Ba/F3 not transduced, 72 hours. The method, then: as §1, §2
For the next assay, the target named is T1, RET (WT) (Homo sapiens, UniProt P07949).
T1 construct: human RET (658-end, SIGNALCHEM); purchased SIGNALCHEM
T1 sequence (P07949 658-1114 limits assumed): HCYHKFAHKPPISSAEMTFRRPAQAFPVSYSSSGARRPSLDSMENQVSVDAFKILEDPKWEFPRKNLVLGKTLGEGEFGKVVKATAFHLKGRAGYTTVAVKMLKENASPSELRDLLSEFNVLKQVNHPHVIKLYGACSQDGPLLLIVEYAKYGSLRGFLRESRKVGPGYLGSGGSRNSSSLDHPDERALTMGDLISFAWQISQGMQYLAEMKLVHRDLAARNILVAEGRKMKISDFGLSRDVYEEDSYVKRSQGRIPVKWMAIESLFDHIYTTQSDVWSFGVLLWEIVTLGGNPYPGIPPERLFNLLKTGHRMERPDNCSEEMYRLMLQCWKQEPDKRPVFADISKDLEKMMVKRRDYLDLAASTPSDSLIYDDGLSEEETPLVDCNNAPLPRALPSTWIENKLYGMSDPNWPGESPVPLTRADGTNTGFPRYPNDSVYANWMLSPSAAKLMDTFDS
Nature of the assay: RET enzyme inhibitory ability, ADP-Glo kinase assay. Format: biochemical. The following applies: ATP 10 μM, 25° C., 1 hour. The method, then: The Example compound was reacted with a purified human RET (658-end, SIGNALCHEM) enzyme to evaluate the enzyme inhibitory ability by the following method. As a reaction buffer, a composition of 40 mM Tris-HCl pH 7.4, 20 mM MgCl2, 0.5 mg/mL BSA, and 50 μM DTT was used, and all experimental materials were reacted on the reaction buffer. After the human RET (658-end, 0.8 ng) enzyme was reacted with purified ATP (10 μM) and a specific substrate solution at 25° C. for 1 hour during the experiment, the enzyme activity was confirmed using in vitro ADP-Glo™ kinase assay (Promega). Luminescence was measured by reacting the enzyme activity reaction solution, the ADP-Glo reaction solution, and the enzyme activity detection solution at a ratio of 2:2:1. The degree of inhibition of enzyme activity according to the treatment concentration of each compound was calculated based on the […] of the enzyme activity of a solvent control group in which a compound was not treated, and in this case, the concentration of each compound which suppresses the […] enzyme activity by 50% was determined as an IC50 (nM) value. The IC50 (nM) of each compound was determined by 3 datasets and obtained using Prism (version 7.01, GraphPad) software.
In the enzyme assay column, RET (WT) is a non-mutated form, RET (V804M) is a mutated form in which the V amino acid at position 804 of the RET is substituted with M, and CCDC6-RET is a form in which the RET (WT) gene and CCDC6 gene are fused.
In general terms: ADP-Glo first removes unused ATP, then detects ADP through luciferase.

Take `COc1ncc(CN2C3CC2CN(c2ccc(-c4nc(Nc5cc(C)[nH]n5)c5ccccc5n4)cn2)C3)cc1Cl` [Example 16, 2-(6-(6-((5-chloro-6-methoxypyridin-3-yl)methyl)-3,6-diazabicyclo [3.1.1]heptan-3-yl)pyridin-3-yl)-N-(5-methyl-1H-pyrazol-3-yl)quinazolin-4-amine]: the GI50 in assay [1] turned out to be 127 nM; in assay [2] it was 39 nM; in assay [3], 42 nM; in the assay on Ba/F3 (naive) cells, 4010 nM. Half-maximal inhibition against RET (WT) (IC50) required 60 nM.

For `COc1cnc(CN2C3CC2CN(c2ccc(-c4nc(Nc5cc(C)[nH]n5)c5ccccc5n4)cn2)C3)cn1` [Example 17, 2-(6-(6-((5-methoxypyrazin-2-yl)methyl)-3,6-diazabicyclo [3.1.1]heptan-3-yl)pyridin-3-yl)-N-(5-methyl-1H-pyrazol-3-yl)quinazolin-4-amine], the GI50 is 46 nM in assay [1], 7 nM in assay [2], 10 nM in assay [3] and 867 nM with Ba/F3 (naive) cells. At RET (WT), this molecule showed a concentration for half-maximal inhibition (IC50) of 11 nM.

As for `Cc1cc(Nc2nc(-c3ccc(N4CC5CC(C4)N5Cc4ccc5ncccc5c4)nc3)nc3ccccc23)n[nH]1` [Example 18, N-(5-methyl-1H-pyrazol-3-yl)-2-(6-(6-(quinolin-6-ylmethyl)-3,6-diazabicyclo [3.1.1]heptan-3-yl)pyridin-3-yl)quinazolin-4-amine], the GI50 came out at 67 nM in assay [1], 25 nM in assay [2], 28 nM in assay [3] and 4600 nM in the assay with Ba/F3 (naive) cells. Besides, on RET (WT), the IC50 turned out to be 34 nM.

Turning to `Cc1csc(CN2C3CC2CN(c2ccc(-c4nc(Nc5cc(C)[nH]n5)c5ccccc5n4)cn2)C3)n1` [Example 19, N-(5-methyl-1H-pyrazol-3-yl)-2-(6-(6-((4-methylthiazol-2-yl)methyl)-3,6-diazabicyclo [3.1.1]heptan-3-yl)pyridin-3-yl)quinazolin-4-amine], the GI50 in assay [1] came to 120 nM; in assay [2], 28 nM; in assay [3], 29 nM; in the assay with Ba/F3 (naive) cells, 1230 nM. At RET (WT), the 50% inhibitory concentration (IC50) was found to be 40 nM.

As to `Cc1cc(Nc2nc(-c3ccc(N4CC5CC(C4)N5Cc4ccc(N(C)C)nc4)nc3)nc3ccccc23)n[nH]1` [Example 20, 2-(6-(6-((6-(di-methylamino)py-ridin-3-yl)meth-yl)-3,6-diazabicyclo [3.1.1]heptan-3-yl)pyridin-3-yl)-N-(5-methyl-1H-pyrazol-3-yl)quinazolin-4-amine], the GI50 in assay [1] amounted to 44 nM; in assay [2] it was 6 nM; in assay [3], 11 nM; with Ba/F3 (naive) cells it was 2780 nM. The IC50 at RET (WT) turned out to be 14 nM.

Turning to `Cc1cc(Nc2nc(-c3ccc(N4CC5CC(C4)N5Cc4ccc(F)cc4)nc3)nc3ccccc23)n[nH]1` [Example 22, 2-(6-(6-(4-fluorobenzyl)-3,6-diazabicyclo [3.1.1]heptan-3-yl)pyridin-3-yl)-N-(5-methyl-1H-pyrazol-3-yl)quinazolin-4-amine], the GI50 was found to be 55 nM in assay [1], 6 nM in assay [2], 20 nM in assay [3] and 1220 nM in the assay on Ba/F3 (naive) cells. Half-maximal inhibition against RET (WT) (IC50) required 20 nM.

For the molecule `Cc1cc(Nc2nc(-c3ccc(N4CC5CC(C4)N5Cc4ccc(F)nc4)nc3)nc3ccccc23)n[nH]1` [Example 23, 2-(6-(6-((6-fluoropyridin-3-yl)methyl)-3,6-diazabicyclo [3.1.1]heptan-3-yl)pyridin-3-yl)-N-(5-methyl-1H-pyrazol-3-yl)quinazolin-4-amine], the GI50 was determined as 57 nM in assay [1], 19 nM in assay [2], 14 nM in assay [3] and 1300 nM with Ba/F3 (naive) cells. For the same molecule, half-maximal inhibition against RET (WT) (IC50) was put at 15 nM.

Regarding `CCOc1ccc(CN2C3CC2CN(c2ccc(-c4nc(Nc5cc(C)[nH]n5)c5ccccc5n4)cn2)C3)cn1` [Example 24, 2-(6-(6-((6-ethoxypyridin-3-yl)methyl)-3,6-diazabicyclo [3.1.1]heptan-3-yl)pyridin-3-yl)-N-(5-methyl-1H-pyrazol-3-yl)quinazolin-4-amine], the concentration for 50% growth inhibition (GI50) was determined as 53 nM in assay [1], 10 nM in assay [2], 12 nM in assay [3] and 4320 nM in the assay with Ba/F3 (naive) cells. This molecule also came in with an IC50 against RET (WT) of 14 nM.

Regarding `Cc1ncc(CN2C3CC2CN(c2ccc(-c4nc(Nc5cc(C)[nH]n5)c5ccccc5n4)cn2)C3)cn1` [Example 25, N-(5-methyl-1H-pyrazol-3-yl)-2-(6-(6-((2-methylpyrimidin-5-yl)methyl)-3,6-diazabicyclo [3.1.1]heptan-3-yl)pyridin-3-yl)quinazolin-4-amine], the 50% growth inhibitory concentration (GI50) in assay [1] stood at 50 nM; in assay [2], 21 nM; in assay [3], 14 nM; with Ba/F3 (naive) cells, 1650 nM. At RET (WT), this molecule gave an IC50 of 7 nM.

Turning to `Cc1cnc(CN2C3CC2CN(c2ccc(-c4nc(Nc5cc(C)[nH]n5)c5ccccc5n4)cn2)C3)cn1` [Example 26, N-(5-methyl-1H-pyrazol-3-yl)-2-(6-(6-((5-methylpyrazin-2-yl)methyl)-3,6-diazabicyclo [3.1.1]heptan-3-yl)pyridin-3-yl)quinazolin-4-amine], the GI50 was determined as 37 nM in assay [1], 10 nM in assay [2], 10 nM in assay [3] and 973 nM in the assay on Ba/F3 (naive) cells. The same molecule yielded a half-inhibitory concentration (IC50) at RET (WT) of 7 nM.

For `COc1ccc(CN2CCN(c3ccc(-c4nc(Nc5cc(C)[nH]n5)c5ccccc5n4)cn3)CC2(C)C)cn1` [Example 29, 2-(6-(4-((6-meth-oxypyridin-3-yl)methyl)-3,3-dimethyl-piperazin-1-yl)pyridin-3-yl)-N-(5-methyl-1H-pyrazol-3-yl)quinazolin-4-amine], the GI50 in assay [1] came to 454 nM; in assay [2] it was 89 nM; in assay [3], 164 nM; in the assay with Ba/F3 (naive) cells, 6320 nM. In addition, the IC50 at RET (WT) came to 123 nM.

In the case of `COc1ccc(CN2CCCN(c3ccc(-c4nc(Nc5cc(C)[nH]n5)c5ccccc5n4)cn3)CC2)cn1` [Example 30, 2-(6-(4-((6-methoxypyridin-3-yl)methyl)-1,4-diazepan-1-yl)pyridin-3-yl)-N-(5-methyl-1H-pyrazol-3-yl)quinazolin-4-amine], the GI50 in assay [1] was 99 nM; in assay [2], 25 nM; in assay [3], 44 nM; in the assay with Ba/F3 (naive) cells, 1130 nM. On RET (WT), this molecule gave an IC50 of 34 nM.

`COc1ccc(CN2C[C@@H]3C[C@H]2CN3c2ccc(-c3nc(Nc4cc(C)[nH]n4)c4ccccc4n3)cn2)cn1` [Example 31, 2-(6-((1S,4S)-5-((6-methoxy-pyridin-3-yl)methyl)-2,5-diazabicyclo [2.2.1]heptan-2-yl)pyridin-3-yl)-N-(5-methyl-1H-pyrazol-3-yl)quinazolin-4-amine]: the GI50 was found to be 66 nM in assay [1], 12 nM in assay [2], 18 nM in assay [3] and 1680 nM in the assay with Ba/F3 (naive) cells. Further, on RET (WT), the IC50 is 25 nM.
